Assay results from ChEMBL document CHEMBL3526057 (Drug Metab Dispos, 2011).

Assays:
Format in all cases: ADME
[1] = biological target: T1, Cytochrome P450 2C19 (Homo sapiens, UniProt P33261, I19L); experiment: Activity of human recombinant CYP2C19.15 mutant expressed in Saccharomyces cerevisiae BJ5457 assessed asomeprazole 5'-hydroxylation after 60 mins; conditions: recombinant enzyme, 1 h
[2] = biological target: T2, Cytochrome P450 2C19 (Homo sapiens, UniProt P33261); experiment: Activity of human recombinant CYP2C19.8 mutant expressed in Saccharomyces cerevisiae BJ5457 assessed as omeprazole 5'-hydroxylation per pmol protein at 5 uM after 60 mins; conditions: recombinant enzyme, 1 h
[3] = biological target: T3, Cytochrome P450 2C19 (Homo sapiens, UniProt P33261, R144H); experiment: Activity of human recombinant CYP2C19.9 mutant expressed in Saccharomyces cerevisiae BJ5457 assessed as intrinisic clearance foromeprazole 5'-hydroxylation per pmol protein after 60 mins; conditions: recombinant enzyme, 1 h
[4] = biological target: CYP2C19.14 (CYP2C19 variant) (Homo sapiens, UniProt P33261, L17P); experiment: Activity of human recombinant CYP2C19.14 mutant expressed in Saccharomyces cerevisiae BJ5457 assessed asomeprazole 5'-hydroxylation after 60 mins; conditions: probe omeprazole (5'-hydroxylation)
[5] = biological target: T3, Cytochrome P450 2C19; experiment: Activity of human recombinant CYP2C19.9 mutant expressed in Saccharomyces cerevisiae BJ5457 assessed as omeprazole 5'-hydroxylation per pmol protein at 100 uM after 60 mins; conditions: recombinant enzyme, 1 h
[6] = biological target: T4, Cytochrome P450 2C19 (Homo sapiens, UniProt P33261, D360N); experiment: Activity of human recombinant CYP2C19 D360N mutant expressed in Saccharomyces cerevisiae BJ5457 assessed as omeprazole 5'-hydroxylation per pmol protein at 100 uM after 60 mins; conditions: recombinant enzyme, 1 h
[7] = biological target: T4, Cytochrome P450 2C19; experiment: Activity of human recombinant CYP2C19 D360N mutant expressed in Saccharomyces cerevisiae BJ5457 assessed asomeprazole 5'-hydroxylation per pmol protein after 60 mins; conditions: recombinant enzyme, 1 h
[8] = biological target: T2, Cytochrome P450 2C19; experiment: Activity of human recombinant CYP2C19.8 mutant expressed in Saccharomyces cerevisiae BJ5457 assessed as omeprazole 5'-hydroxylation per pmol protein at 100 uM after 60 mins; conditions: recombinant enzyme, 1 h
[9] = biological target: T5, Cytochrome P450 2C19 (Homo sapiens, UniProt P33261, F168L); experiment: Activity of human recombinant CYP2C19 F168L mutant expressed in Saccharomyces cerevisiae BJ5457 assessed as omeprazole 5'-hydroxylation per pmol protein at 5 uM after 60 mins; conditions: recombinant enzyme, 1 h
[10] = biological target: Cytochrome P450 2C19 (Homo sapiens, UniProt P33261, R329H); experiment: Activity of human recombinant CYP2C19.18 mutant expressed in Saccharomyces cerevisiae BJ5457 assessed as omeprazole 5'-hydroxylation per pmol protein at 5 uM after 60 mins; conditions: recombinant enzyme, 1 h
[11] = biological target: Cytochrome P450 2C19 (Homo sapiens, UniProt P33261, V331I/R442C); experiment: Activity of human recombinant CYP2C19.16 mutant expressed in Saccharomyces cerevisiae BJ5457 assessed as omeprazole 5'-hydroxylation per pmol protein at 100 uM after 60 mins; conditions: recombinant enzyme, 1 h
[12] = biological target: T4, Cytochrome P450 2C19; experiment: Activity of human recombinant CYP2C19 D360N mutant expressed in Saccharomyces cerevisiae BJ5457 assessed as intrinisic clearance foromeprazole 5'-hydroxylation per pmol protein after 60 mins; conditions: recombinant enzyme, 1 h
[13] = biological target: T6, Cytochrome P450 2C19 (Homo sapiens, UniProt P33261, M74T); experiment: Activity of human recombinant CYP2C19 M74T mutant expressed in Saccharomyces cerevisiae BJ5457 assessed as omeprazole 5'-hydroxylation per pmol protein at 5 uM after 60 mins; conditions: recombinant enzyme, 1 h
[14] = biological target: CYP2C19.19 (CYP2C19 variant) (Homo sapiens, UniProt P33261, S51G); experiment: Activity of human recombinant CYP2C19.19 mutant expressed in Saccharomyces cerevisiae BJ5457 assessed asomeprazole 5'-hydroxylation after 60 mins; conditions: probe omeprazole (5'-hydroxylation)
[15] = biological target: Cytochrome P450 2C19 (Homo sapiens, UniProt P33261, R433W); experiment: Activity of human recombinant CYP2C19.5B mutant expressed in Saccharomyces cerevisiae BJ5457 assessed as omeprazole 5'-hydroxylation per pmol protein at 5 uM after 60 mins; conditions: recombinant enzyme, 1 h
[16] = biological target: Cytochrome P450 2C19 (Homo sapiens, UniProt P33261, A161P); experiment: Activity of human recombinant CYP2C19 A161P mutant expressed in Saccharomyces cerevisiae BJ5457 assessed asomeprazole 5'-hydroxylation per pmol protein after 60 mins; conditions: recombinant enzyme, 1 h
[17] = biological target: T2, Cytochrome P450 2C19; experiment: Activity of human recombinant CYP2C19.1A mutant expressed in Saccharomyces cerevisiae BJ5457 assessed asomeprazole 5'-hydroxylation after 60 mins; conditions: recombinant enzyme, 1 h
[18] = biological target: T7, Cytochrome P450 2C19 (Homo sapiens, UniProt P33261, P227L); experiment: Activity of human recombinant CYP2C19.10 mutant expressed in Saccharomyces cerevisiae BJ5457 assessed asomeprazole 5'-hydroxylation after 60 mins; conditions: recombinant enzyme, 1 h
[19] = biological target: T5, Cytochrome P450 2C19; experiment: Activity of human recombinant CYP2C19 F168L mutant expressed in Saccharomyces cerevisiae BJ5457 assessed asomeprazole 5'-hydroxylation after 60 mins; conditions: recombinant enzyme, 1 h
[20] = biological target: T8, Cytochrome P450 2C19 (Homo sapiens, UniProt P33261, E92D); experiment: Activity of human recombinant CYP2C19 E92D mutant expressed in Saccharomyces cerevisiae BJ5457 assessed as omeprazole 5'-hydroxylation per pmol protein at 5 uM after 60 mins; conditions: recombinant enzyme, 1 h
[21] = biological target: T6, Cytochrome P450 2C19; experiment: Activity of human recombinant CYP2C19 M74T mutant expressed in Saccharomyces cerevisiae BJ5457 assessed asomeprazole 5'-hydroxylation per pmol protein after 60 mins; conditions: recombinant enzyme, 1 h
[22] = biological target: T7, Cytochrome P450 2C19; experiment: Activity of human recombinant CYP2C19.10 mutant expressed in Saccharomyces cerevisiae BJ5457 assessed as omeprazole 5'-hydroxylation per pmol protein at 5 uM after 60 mins; conditions: recombinant enzyme, 1 h
[23] = biological target: Cytochrome P450 2C19 (Homo sapiens, UniProt P33261, E122A); experiment: Activity of human recombinant CYP2C19 E122A mutant expressed in Saccharomyces cerevisiae BJ5457 assessed as intrinisic clearance foromeprazole 5'-hydroxylation per pmol protein after 60 mins; conditions: recombinant enzyme, 1 h
[24] = biological target: Cytochrome P450 2C19 (Homo sapiens, UniProt P33261, L17P); experiment: Activity of human recombinant CYP2C19.14 mutant expressed in Saccharomyces cerevisiae BJ5457 assessed as omeprazole 5'-hydroxylation per pmol protein at 5 uM after 60 mins; conditions: recombinant enzyme, 1 h
[25] = biological target: T6, Cytochrome P450 2C19; experiment: Activity of human recombinant CYP2C19 M74T mutant expressed in Saccharomyces cerevisiae BJ5457 assessed as omeprazole 5'-hydroxylation per pmol protein at 100 uM after 60 mins; conditions: recombinant enzyme, 1 h
[26] = biological target: Cytochrome P450 2C19 (Homo sapiens, UniProt P33261, S51G); experiment: Activity of human recombinant CYP2C19.19 mutant expressed in Saccharomyces cerevisiae BJ5457 assessed as omeprazole 5'-hydroxylation per pmol protein at 100 uM after 60 mins; conditions: recombinant enzyme, 1 h
[27] = biological target: T8, Cytochrome P450 2C19; experiment: Activity of human recombinant CYP2C19 E92D mutant expressed in Saccharomyces cerevisiae BJ5457 assessed asomeprazole 5'-hydroxylation per pmol protein after 60 mins; conditions: recombinant enzyme, 1 h
[28] = biological target: T9, Cytochrome P450 2C19 (Homo sapiens, UniProt P33261, R410C); experiment: Activity of human recombinant CYP2C19.13 mutant expressed in Saccharomyces cerevisiae BJ5457 assessed as omeprazole 5'-hydroxylation per pmol protein at 5 uM after 60 mins; conditions: recombinant enzyme, 1 h
[29] = biological target: T9, Cytochrome P450 2C19; experiment: Activity of human recombinant CYP2C19.13 mutant expressed in Saccharomyces cerevisiae BJ5457 assessed asomeprazole 5'-hydroxylation per pmol protein after 60 mins; conditions: recombinant enzyme, 1 h
[30] = biological target: T1, Cytochrome P450 2C19; experiment: Activity of human recombinant CYP2C19.15 mutant expressed in Saccharomyces cerevisiae BJ5457 assessed as omeprazole 5'-hydroxylation per pmol protein at 100 uM after 60 mins; conditions: recombinant enzyme, 1 h

Compound: COc1ccc2[nH]c([S+]([O-])Cc3ncc(C)c(OC)c3C)nc2c1 (stereo not given) [OMEPRAZOLE]
- Km [1]: 6.78 µM
- Drug metabolism [2]: metabolite_not_detected
- CL [3]: 0.62 µL/min
- Km at 1 h [4]: 4.3 µM
- Drug metabolism [5]: 5.48 pmol/min
- Drug metabolism [6]: 4.1 pmol/min
- Vmax [7]: 4.11 pmol/min
- Drug metabolism [8]: 0.72 pmol/min
- Drug metabolism [9]: 3.08 pmol/min
- Drug metabolism [10]: 2.21 pmol/min
- Drug metabolism [11]: 1.41 pmol/min
- CL [12]: 0.53 µL/min
- Drug metabolism [13]: 2.24 pmol/min
- Km at 1 h [14]: 14.5 µM
- Drug metabolism [15]: metabolite_not_detected
- Vmax [16]: 1.61 pmol/min
- Km [17]: 5.42 µM
- Km [18]: 10.6 µM
- Km [19]: 6.56 µM
- Drug metabolism [20]: 2.95 pmol/min
- Vmax [21]: 4.03 pmol/min
- Drug metabolism [22]: 1.94 pmol/min
- CL [23]: 0.4 µL/min
- Drug metabolism [24]: 2.85 pmol/min
- Drug metabolism [25]: 4.27 pmol/min
- Drug metabolism [26]: 8.65 pmol/min
- Vmax [27]: 6.93 pmol/min
- Drug metabolism [28]: 3.03 pmol/min
- Vmax [29]: 7.83 pmol/min
- Drug metabolism [30]: 7.81 pmol/min
